Results from PubChem BioAssay (NCI).
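Growth conditions: 96-well plates. Treatment: test compound, 48 hours, 5 concentrations. Analysis: linear interpolation between bracketing concentrations; unreached endpoints set to highest concentration. At the TGI there is no net growth.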

Assays:
Test in all cases: inhibition of tumour cell growth, NCI panel, 48 h
786-0 renal = system: 786-0 renal
A549 NSCLC = system: A549 NSCLC
ACHN renal = system: ACHN renal
CAKI-1 renal = system: CAKI-1 renal
CCRF-CEM leukemia = system: CCRF-CEM leukemia
COLO 205 colon = system: COLO 205 colon
DLD-1 colon = system: DLD-1 colon
DMS 114 small cell lung = system: DMS 114 small cell lung
DMS 273 small cell lung = system: DMS 273 small cell lung
EKVX NSCLC = system: EKVX NSCLC
HCC-2998 colon = system: HCC-2998 colon
HCT-15 colon = system: HCT-15 colon
HL-60(TB) leukemia = system: HL-60(TB) leukemia
HOP-62 NSCLC = system: HOP-62 NSCLC
HOP-92 NSCLC = system: HOP-92 NSCLC
HT29 colon = system: HT29 colon
IGROV1 ovarian = system: IGROV1 ovarian
K-562 leukemia = system: K-562 leukemia
KM12 colon = system: KM12 colon
LOX IMVI melanoma = system: LOX IMVI melanoma
LXFL 529 NSCLC = system: LXFL 529 NSCLC
M14 melanoma = system: M14 melanoma
M19-MEL melanoma = system: M19-MEL melanoma
MALME-3M melanoma = system: MALME-3M melanoma
MOLT-4 leukemia = system: MOLT-4 leukemia
NCI-H226 lung = system: NCI-H226 lung
NCI-H460 lung = system: NCI-H460 lung
NCI-H522 lung = system: NCI-H522 lung
OVCAR-3 ovarian = system: OVCAR-3 ovarian
OVCAR-4 ovarian = system: OVCAR-4 ovarian
OVCAR-5 ovarian = system: OVCAR-5 ovarian
OVCAR-8 ovarian = system: OVCAR-8 ovarian
RPMI-8226 leukemia = system: RPMI-8226 leukemia
RXF 393 renal = system: RXF 393 renal
RXF-631 renal = system: RXF-631 renal
SF-268 CNS = system: SF-268 CNS
SF-295 CNS = system: SF-295 CNS
SF-539 CNS = system: SF-539 CNS
SK-MEL-2 melanoma = system: SK-MEL-2 melanoma
SK-MEL-28 melanoma = system: SK-MEL-28 melanoma
SK-MEL-5 melanoma = system: SK-MEL-5 melanoma
SK-OV-3 ovarian = system: SK-OV-3 ovarian
SN12C renal = system: SN12C renal
SNB-19 CNS = system: SNB-19 CNS
SNB-75 CNS = system: SNB-75 CNS
SNB-78 CNS = system: SNB-78 CNS
SW-620 colon = system: SW-620 colon
TK-10 renal = system: TK-10 renal
U251 CNS = system: U251 CNS
UACC-257 melanoma = system: UACC-257 melanoma
UACC-62 melanoma = system: UACC-62 melanoma
UO-31 renal = system: UO-31 renal
XF 498 CNS = system: XF 498 CNS
A498 renal = system: A498 renal
BT-549 breast = system: BT-549 breast
DU-145 prostate = system: DU-145 prostate
HCT-116 colon = system: HCT-116 colon
HS 578T breast = system: HS 578T breast
KM20L2 colon = system: KM20L2 colon
MCF7 breast = system: MCF7 breast
MDA-MB-231 breast = system: MDA-MB-231 breast
MDA-MB-435 = system: MDA-MB-435
MDA-N = system: MDA-N
NCI-H23 lung = system: NCI-H23 lung
NCI/ADR-RES ovarian = system: NCI/ADR-RES ovarian
PC-3 prostate = system: PC-3 prostate
SR leukemia = system: SR leukemia
T-47D breast = system: T-47D breast

COC(=O)C(=Cc1cc(OC)ccc1OC)C(=O)OC
TGI (786-0 renal): 53.5 µM
TGI (A549 NSCLC): 92 µM
TGI (ACHN renal): 35.1 µM
TGI (CAKI-1 renal): 43.3 µM
TGI (CCRF-CEM leukemia): 61.8 µM
TGI (COLO 205 colon): 34.1 µM
TGI (DLD-1 colon): 91.3 µM
TGI (DMS 114 small cell lung): 53.1 µM
TGI (DMS 273 small cell lung): > 100 µM
TGI (EKVX NSCLC): 72.2 µM
TGI (HCC-2998 colon): 34 µM
TGI (HCT-15 colon): > 100 µM
TGI (HL-60(TB) leukemia): 59.1 µM
TGI (HOP-62 NSCLC): 64.1 µM
TGI (HOP-92 NSCLC): 60 µM
TGI (HT29 colon): 56.5 µM
TGI (IGROV1 ovarian): 56.9 µM
TGI (K-562 leukemia): 53.6 µM
TGI (KM12 colon): 42.8 µM
TGI (LOX IMVI melanoma): 50.1 µM
TGI (LXFL 529 NSCLC): 36 µM
TGI (M14 melanoma): 36.6 µM
TGI (M19-MEL melanoma): 79.5 µM
TGI (MALME-3M melanoma): 74.6 µM
TGI (MOLT-4 leukemia): > 100 µM
TGI (NCI-H226 lung): > 100 µM
TGI (NCI-H460 lung): 91.6 µM
TGI (NCI-H522 lung): 34.4 µM
TGI (OVCAR-3 ovarian): 50.6 µM
TGI (OVCAR-4 ovarian): 51.6 µM
TGI (OVCAR-5 ovarian): 61.5 µM
TGI (OVCAR-8 ovarian): > 100 µM
TGI (RPMI-8226 leukemia): 92.2 µM
TGI (RXF 393 renal): 31.3 µM
TGI (RXF-631 renal): 88.3 µM
TGI (SF-268 CNS): > 100 µM
TGI (SF-295 CNS): 82.1 µM
TGI (SF-539 CNS): 65.2 µM
TGI (SK-MEL-2 melanoma): 50.1 µM
TGI (SK-MEL-28 melanoma): 82.9 µM
TGI (SK-MEL-5 melanoma): 42.7 µM
TGI (SK-OV-3 ovarian): 76.2 µM
TGI (SN12C renal): 64.3 µM
TGI (SNB-19 CNS): > 100 µM
TGI (SNB-75 CNS): 97 µM
TGI (SNB-78 CNS): > 100 µM
TGI (SW-620 colon): 55.6 µM
TGI (TK-10 renal): 97.4 µM
TGI (U251 CNS): 42.9 µM
TGI (UACC-257 melanoma): 35.1 µM
TGI (UACC-62 melanoma): 73.7 µM
TGI (UO-31 renal): 50.9 µM
TGI (XF 498 CNS): 47.4 µM

C=C(c1nc2ccc(Cl)cc2[nH]c1=O)C(O)c1ccc(C(O)C(=O)c2nc3ccc(Cl)cc3[nH]c2=O)cc1 (stereo unspecified)
TGI (786-0 renal): > 100 µM
TGI (A498 renal): > 100 µM
TGI (A549 NSCLC): > 100 µM
TGI (ACHN renal): > 100 µM
TGI (BT-549 breast): > 100 µM
TGI (CAKI-1 renal): > 100 µM
TGI (CCRF-CEM leukemia): > 100 µM
TGI (COLO 205 colon): > 100 µM
TGI (DLD-1 colon): > 100 µM
TGI (DMS 114 small cell lung): > 100 µM
TGI (DMS 273 small cell lung): > 100 µM
TGI (DU-145 prostate): > 100 µM
TGI (EKVX NSCLC): > 100 µM
TGI (HCC-2998 colon): > 100 µM
TGI (HCT-116 colon): > 100 µM
TGI (HCT-15 colon): > 100 µM
TGI (HL-60(TB) leukemia): 41.8 µM
TGI (HOP-62 NSCLC): > 100 µM
TGI (HOP-92 NSCLC): > 100 µM
TGI (HS 578T breast): > 100 µM
TGI (HT29 colon): > 100 µM
TGI (IGROV1 ovarian): > 100 µM
TGI (K-562 leukemia): > 100 µM
TGI (KM12 colon): > 100 µM
TGI (KM20L2 colon): > 100 µM
TGI (LOX IMVI melanoma): > 100 µM
TGI (LXFL 529 NSCLC): > 100 µM
TGI (M14 melanoma): > 100 µM
TGI (M19-MEL melanoma): > 100 µM
TGI (MALME-3M melanoma): > 100 µM
TGI (MCF7 breast): > 100 µM
TGI (MDA-MB-231 breast): > 100 µM
TGI (MDA-MB-435): > 100 µM
TGI (MDA-N): > 100 µM
TGI (MOLT-4 leukemia): > 100 µM
TGI (NCI-H226 lung): > 100 µM
TGI (NCI-H23 lung): > 100 µM
TGI (NCI-H460 lung): > 100 µM
TGI (NCI-H522 lung): > 100 µM
TGI (NCI/ADR-RES ovarian): > 100 µM
TGI (OVCAR-3 ovarian): > 100 µM
TGI (OVCAR-4 ovarian): > 100 µM
TGI (OVCAR-5 ovarian): > 100 µM
TGI (OVCAR-8 ovarian): > 100 µM
TGI (PC-3 prostate): > 100 µM
TGI (RPMI-8226 leukemia): > 100 µM
TGI (RXF 393 renal): > 100 µM
TGI (RXF-631 renal): > 100 µM
TGI (SF-268 CNS): > 100 µM
TGI (SF-295 CNS): > 100 µM
TGI (SF-539 CNS): > 100 µM
TGI (SK-MEL-2 melanoma): > 100 µM
TGI (SK-MEL-28 melanoma): > 100 µM
TGI (SK-MEL-5 melanoma): > 100 µM
TGI (SK-OV-3 ovarian): > 100 µM
TGI (SN12C renal): > 100 µM
TGI (SNB-19 CNS): > 100 µM
TGI (SNB-75 CNS): > 100 µM
TGI (SNB-78 CNS): > 100 µM
TGI (SR leukemia): > 100 µM
TGI (SW-620 colon): > 100 µM
TGI (T-47D breast): > 100 µM
TGI (TK-10 renal): > 100 µM
TGI (U251 CNS): > 100 µM
TGI (UACC-257 melanoma): > 100 µM
TGI (UACC-62 melanoma): > 100 µM
TGI (UO-31 renal): > 100 µM
TGI (XF 498 CNS): > 100 µM
